We go through ten compounds from patent US10155751B2, “Pyrazolyl-substituted heteroaryls and their use as medicaments” (Boehringer Ingelheim International GmbH, priority 2015, dated 2018).

In data set [1] the test system is SYK dependent basophil degranulation (CD63 surface expression on basophils in whole blood). The data set is described as follows: CD63-assay (cellular assay for SYK-inhibition) in whole blood. The format is cell-based. The procedure: In this assay, IgE raised against dinitrophenol (DNP) is incubated in whole blood where it binds to the FcεR1 on basophils. […] CD63 normally resides on the intracellular granule membrane within basophils, which upon degranulation, is then expressed on the surface where it can be detected by flow cytometry. Surface expression of CD63 correlates extremely well with the release of histamine from basophils. The CD63 assay has previously been validated as a clinical target engagement biomarker in the Fostamatinib SYK program (Braselmann et al, J. Pharm. Exp. Therap. 319:998-1008, 2006). Heparinized whole blood is mixed gently (vortex mixer) and […] per test aliquoted into a 96 well plate. Anti-DNP (1 mg/ml) is diluted 1:100 with PBS/0.1% HSA to 10 μg/ml (final concentration: 1 μg/mL). Pre-dilute DNP/BSA (5 mg/ml) to a concentration of 60 ng/ml with washing solution. Compounds: […] Reagents are provided from the Basotest® kit. Incubate 10 μl of 10 μg/ml anti DNP and 10 μl of compound with 100 μl whole blood in a 37° C. pre-warmed water bath. After 30 minutes, 20 μl of STIMULATION BUFFER is added to the whole blood samples and vortexed gently. Incubate the samples for 10 min at 37° C. in a water bath. 100 μl of DNP/BSA is added per test to the whole blood. Add 100 μl of the WASHING SOLUTION to a further test tube as a negative control. Add 100 μl of DNP/BSA (final 30 ng/ml) in the compound tubes. All tubes are mixed once more. The samples are incubated for 20 min at 37° C. in a water bath. Stop degranulation by incubating the samples on ice for 5 min. Add 20 μl of STAINING REAGENT to each tube. Vortex and incubate the tubes for 20 min in an ice bath, covered to prevent exposure to light. The whole blood samples are lysed and fixed with 2 ml of pre-warmed (room temperature) 1×LYSING SOLUTION. Vortex and incubate for 10 min at room temperature. Spin down cells (5 min, 250×g, 4° C.). Discard the supernatant. Add 3 ml of WASHING SOLUTION to the tubes. Centrifuge the tubes (5 min, 250×g, 4° C.). Aspirate the supernatant. Add 200 μl WASHING SOLUTION to the cell pellet, vortex. Incubate the tubes in a covered ice bath until analysis. Cells are analysed by flow cytometry using the blue-green excitation light (488 nm argon-ion laser). Acquire data by using fluorescence triggering in the FL2 channel (PE) to gate on basophilic granulocytes expressing high amounts of IgE. This live gating reduces the amount of data and saves memory capacity. Acquire at least 500 basophils per sample. For data evaluation and calculation, the measurement of the negative control (unstimulated blood) was set as 100% control and the measurement of the positive control (DNP/anti-DNP stimulated blood) was set as 0% control. Based on these values the % value for the measurement of each substance concentration was calculated, a concentration-effect curve fitted and an EC50 value calculated using GraphPad Prism version 6.01 for Windows. The EC50 value was calculated using a nonlinear fitting (log(inhibitor) vs. response—variable slope). Normally, the % control values calculated are between 0% and 100% values but may also occur outside these limits in individual cases based on variability or compound characteristics.

The next data set relates to human hepatocytes. The data set is described as follows: Human hepatocyte stability test. Type of data set: in vitro ADME. To be noted: human hepatocyte suspension, percent of hepatic blood flow. The method, then: A more comprehensive way to measure the metabolic stability of a compound of the instant invention than microsomal stability (section 5.6) is the human hepatocyte stability test as described below. Herein the metabolic degradation for the compound in question is performed in a human hepatocyte suspension.
Human hepatocytes (typically cryopreserved) are incubated in an appropriate buffer system (e.g. Dulbecco's modified eagle medium plus 3.5 μg glucagon/500 mL, 2.5 mg insulin/500 mL and 3.75 mg/500 mL hydrocortison) containing 5% species serum.
Following a (typically) 30 min preincubation in an incubator (37° C., 10% CO2) 5 μl of the solution of the compound to be tested ([…]; from 2 mM in DMSO stock solution diluted 1:25 with medium) are added into 395 μl hepatocyte suspension (cell density is in the range of 0.25-5 Mio cells/mL, typically 1 Mio cells/mL; the final concentration of the compound in question is […], the final DMSO concentration is 0.05%).
The cells are incubated for six hours (incubator, orbital shaker) and samples (25 μl) are taken at 0, 0.5, 1, 2, 4 and 6 hours. Samples are transferred into acetonitrile and pelleted by centrifugation (5 min). The supernatant is transferred to a new 96-deepwell plate, evaporated under nitrogen and resuspended.
The decline of the compound to be tested is analyzed by HPLC-MS/MS.
CLint is calculated as follows CL_INTRINSIC=Dose/AUC=(C0/CD)/(AUD+clast/k)×1000/60.
C0: initial concentration in the incubation [μM], CD: cell density of vital cells [10^6 cells/mL], AUD: area under the data [μM×h], clast: concentration of last data point [μM], k: slope of the regression line for the compound in question decline [h−1].
The calculated in vitro hepatic intrinsic clearance can be scaled up to the intrinsic in vivo hepatic Clearance and used to predict hepatic in vivo blood clearance (CL) by the use of a liver model (well stirred model). CL_INTRINSIC_INVIVO [ml/min/kg]=(CL_INTRINSIC [μL/min/10^6cells]×hepatocellularity[10^6 cells/g liver]×liver factor [g/kg bodyweight])/1000 CL [ml/min/kg]=CL_INTRINSIC_INVIVO [ml/min/kg]×hepatic blood flow [ml/min/kg]/(CL_INTRINSIC_INVIVO [ml/min/kg]+hepatic blood flow [ml/min/kg]) Qh[%]=CL [ml/min/kg]/hepatic blood flow [ml/min/kg]) […]
Hepatocellularity, human: 120×10^6 cells/g liver
Liver factor, human: 25.7 g/kg bodyweight
Blood flow, human: 21 ml/(min×kg)
A satisfying human hepatocyte stability for a compound in question measured by this assay is represented by a Qh<20% (whereby the stability is better, the lower the Qh-value is).

Where [2] appears, read: whole blood, DNP/anti-DNP stimulated basophils, read-out: CD63 assay EC50-value (chapter 5.2).

Read-outs that look alike come from different tables or passages of the source.

Broadly, the EC50 is the concentration needed to bring the measured effect to its halfway point. For `Cc1c2c(O[C@H](C)[C@H]3CNC(=O)C3)nc(-c3c[nH]nc3C(C)(C)C)cc2nn1C` [Example 4, (R)-4-{(R)-1-[6-(3-tert-Butyl-1H-pyrazol-4-yl)-2,3-dimeth-yl-2H-pyrazolo[4,3-c]pyridin-4-yloxy]-ethyl}-pyrrolidin-2-one], the EC50 in data set [1] (setting [2]) stood at 64 nM. Besides, the “stability in human hepatocytes (chapter 5.7) HEPhu” value (from here on “stability in human hepatocytes”) with human hepatocytes is reported as 10 % Qh.

Regarding `C[C@@H](Oc1cc(-c2cnn(C(C)(C)C)c2)cc2ncn(C)c12)[C@H]1CNC(=O)C1` [example 3B.22 on page 219 of WO15017610, reference compound], the EC50 in data set [1] (read-out: EC50 in CD63-assay) was less than 150 nM; in data set [1] (setting [2]), 29 nM. In addition, the “stability in human hepatocytes” value in the data set on human hepatocytes came to 5 % Qh.

Turning to `C[C@@H](Oc1cc(-c2cnn(C3CC(C)(C)OC3(C)C)c2)cc2nn(C)c(F)c12)[C@H]1CNC(=O)C1` (stereo partly drawn) [Example 14, (R)-4-((R)-1-{3-Fluoro-2-methyl-6-[1-(2,2,5,5-tetramethyl-tetrahydro-furan-3-yl)-1H-pyrazol-4-yl]-2H-indazol-4-yloxy}-ethyl)-pyrrolidin-2-one], in data set [1] (setting [2]), the EC50 stood at 76 nM. Moreover, the “stability in human hepatocytes” value with human hepatocytes is recorded as 12 % Qh.

In the case of `Cc1c2c(O[C@H](C)[C@H]3CNC(=O)C3)cc(-c3cnn(C(C)(C)C#N)c3)cc2nn1C` [Example 17, 2-(4-{2,3-Dimethyl-4-[(R)-1-((R)-5-oxo-pyrrolidin-3-yl)-ethoxy]-2H-indazol-6-yl}-pyrazol-1-yl)-2-methyl-propionitrile], the EC50 in data set [1] (setting [2]) worked out at 92 nM. Moreover, in the data set with human hepatocytes, the “stability in human hepatocytes” value turned out to be 4 % Qh.

In the case of `C[C@@H](Oc1cc(-c2cnn(C3CCC3)c2)cc2nn(C)c(F)c12)[C@H]1CNC(=O)C1` [Example 1, (R)-4-{(R)-1-[6-(1-Cyclobutyl-1H-pyrazol-4-yl)-3-fluoro-2-methyl-2H-indazol-4-yloxy]-ethyl}-pyrrolidin-2-one], the 50% effective concentration (EC50) in data set [1] (setting [2]) stood at 41 nM. Moreover, in the data set with human hepatocytes, the “stability in human hepatocytes” value is given as 10 % Qh.

As to `Cc1cnn2cc(-c3cnn(C(C)(C)C)c3)cc(O[C@H](C)[C@H]3CNC(=O)C3)c12` [example 6.09 on page 559 of WO15017610, reference compound], the EC50 in data set [1] (read-out: EC50 in CD63-assay) is less than 150 nM; in data set [1] (setting [2]), 20 nM. Moreover, the “stability in human hepatocytes” value with human hepatocytes was determined as 17 % Qh.

Take `Cc1c2c(O[C@H](C)[C@H]3CNC(=O)C3)cc(-c3cnn(C4CCC(F)(F)C4)c3)cc2nn1C` (stereo partly drawn) [Example 22, (R)-4-((R)-1-{6-[1-(3,3-Difluoro-cyclopentyl)-1H-pyrazol-4-yl]-2,3-dimethyl-2H-indazol-4-yloxy}-ethyl)-pyrrolidin-2-one]: in data set [1] (setting [2]), the concentration giving a half-maximal response (EC50) stood at 67 nM. Also, the “stability in human hepatocytes” value in the data set on human hepatocytes is 3 % Qh.

Consider `C[C@@H](Oc1cc(-c2cnn(CC3CC3)c2)cc2nn(C)c(F)c12)[C@H]1CNC(=O)C1` [Example 6, (R)-4-{(R)-1-[6-(1-Cycloprop-ylmethyl-1H-pyrazol-4-yl)-3-fluoro-2-methyl-2H-indazol-4-yloxy]-ethyl}-pyrrolidin-2-one], for which the EC50 in data set [1] (setting [2]) is 42 nM. In the data set on human hepatocytes, the “stability in human hepatocytes” value turned out to be 6 % Qh.

Consider `Cc1c2c(O[C@H](C)[C@H]3CNC(=O)C3)cc(-c3cnn(CC4CC4)c3)cc2nn1C` [Example 8, (R)-4-{(R)-1-[6-(1-Cyclopropylmethyl-1H-pyrazol-4-yl)-2,3-dimethyl-2H-indazol-4-yloxy]-ethyl}-pyrrolidin-2-one], for which the EC50 in data set [1] (setting [2]) is 47 nM. The “stability in human hepatocytes” value with human hepatocytes was determined as 5 % Qh.

Consider `Cc1c2c(O[C@H](C)[C@H]3CNC(=O)C3)cc(-c3cnn(CC(C)C)c3)cc2nn1C` [Example 19, (R)-4-{(R)-1-[6-(1-Isobutyl-1H-pyrazol-4-yl)-2,3-dimethyl-2H-indazol-4-yloxy]-ethyl}-pyrrolidin-2-one], for which, in data set [1] (setting [2]), the EC50 was 107 nM. In addition, the “stability in human hepatocytes” value with human hepatocytes came out at 7 % Qh.
